Results published in paper PMC12116762, “Topobexin targets the Topoisomerase II ATPase domain for beta isoform-selective inhibition and anthracycline cardioprotection” (Nature Communications, 2025).
Several values for one entry are separate records, joined by “and”; a condition that tells them apart may be missing. Identical values can stand only once.

Columns and labels:
YFP-TOP2A = molecular target: T1, YFP-TOP2A (Homo sapiens, UniProt P11388); assay: FRAP analysis, YFP-TOP2A in HEK293F cells; type: cell-based; conditions: 0.25 and 1 μM
T1 construct: Using recombinant full-length human TOP2A and TOP2B enzymes; expressed in transfected cells; host or cells: HEK293F
Description: (§1) HEK293F cells were transfected with DNA plasmids encoding yellow-fluorescent protein (YFP)-TOP2A or YFP-TOP2B (the same DNA constructs for mammalian protein expression and purification) using Lipofectamine 2000 (Thermo Fisher Scientific). Cells were cultured for 24 h post transfection and YFP signals were confirmed prior to FRAP experiments. Transfected cells were plated on glass-bottomed culture dishes (Matsunami) and rested overnight. The next day, each dish was pre-incubated with the indicated inhibitor treatment or DMSO control for 15 min prior to FRAP experiment. Each set of experiments was repeated on at least two different days using newly transfected cells each time. Live-cell imaging was done using a LSM 980 microscope (Carl Zeiss Microscopy, LLC). YFP signal was excited at 508 nm at 2% laser power and detected through a 516–604 nm range. A small area within the nucleus (purple box) is manually selected for fluorescence bleaching at 100% laser power for 50 iterations. Inhibition of TOP2 by obex inhibitors was detected by impairment in fluorescence recovery at 15 s post bleaching, as a lack of inhibition allows for TOP2 diffusion throughout the nucleus.

YFP-TOP2B = molecular target: T2, YFP-TOP2B (Homo sapiens, UniProt Q02880); assay: FRAP analysis, YFP-TOP2B in HEK293F cells; type: cell-based; conditions: 0.25 and 1 μM
T2 construct: Using recombinant full-length human TOP2A and TOP2B enzymes; expressed in transfected cells; host or cells: HEK293F
Description: as §1

[1] = Plasma pharmacokinetics in rabbits (LC-MS/MS); type: in vivo, rabbit
Description: Six rabbits were used to determine the plasma pharmacokinetics of topobexin (9). The compound was used as a dihydrochloride and was dissolved right before administration in sterile saline (10 mg of free base/ml); pH was optimized using NaOH and the solution was filtered through an antimicrobial filter (0.22 µm porosity, Carl Roth GmbH + Co. KG, Germany). The drug was administered i.v. using marginal ear vein at 10 mg/kg (counted as a free base) in a 20 min infusion. The dose, route of administration, and timing of infusion were determined based on preliminary pharmacokinetic experiments. Blood for pharmacokinetic analysis was collected from the central artery in the contralateral ear before drug administration (blank) and in preselected time intervals after drug administration (5 min to 10 h). Blood was collected in BD Vacutainer tubes (BD Biosciences, Plymouth, UK) containing lithium heparin. All samples were immediately centrifuged (5 min, 3000 × g), plasma was harvested and frozen immediately in liquid nitrogen and the samples were stored at -80 °C until analysis.
The concentration of topobexin (9) was determined in plasma samples using an analytical method developed and validated for this purpose. Briefly, rabbit plasma (50 μl) was spiked with internal standard (compound 14), precipitated with ice-cold acetonitrile (200 μl), vortexed (30 s), and centrifuged (10 min, 9520 × g, 4 °C). The resulting supernatant was filtered through a 0.45 μm porosity filter (Milex – Hv, Merck Milipore, Darmstadt, Germany) and analyzed using UHPLC-MS. Agilent 1290 Infinity II LC with Triple Quad LC/MS (6400 series), a Jet Stream Electrospray and Mass Hunter software (Agilent, Santa Clara, CA, USA) were used for the analyzes and data treatment, respectively. Chromatographic separation was achieved on the Zorbax Eclipse Plus C18 column (50 × 2.1 mm, 1.8 μm, […], Dublin, Ireland). The mobile phase composed of part A (0.0025% formic acid) and part B (acetonitrile) was mixed in the following gradient: 0–1 min (10% B), 1–3 (10–60% B), 3–3.5 min (60% B), 3.51–5 min (80% B), 5.01–6 min (10% B). The flow rate of mobile phase was 0.3 mL/min and 2 μL of the sample were injected onto the column. The linearity of the method was verified within the concentration range of 1 to 1000 nM topobexin (9) in rabbit plasma.

Aqueous solubility = type: physicochemical; conditions: limited evaluation to ≤ 10 μM
[2] = iv, rabbit plasma, 10 mg/kg, 20 min i.v. infusion

T2 sequence (Q02880 1-1621 isoform Q02880-2): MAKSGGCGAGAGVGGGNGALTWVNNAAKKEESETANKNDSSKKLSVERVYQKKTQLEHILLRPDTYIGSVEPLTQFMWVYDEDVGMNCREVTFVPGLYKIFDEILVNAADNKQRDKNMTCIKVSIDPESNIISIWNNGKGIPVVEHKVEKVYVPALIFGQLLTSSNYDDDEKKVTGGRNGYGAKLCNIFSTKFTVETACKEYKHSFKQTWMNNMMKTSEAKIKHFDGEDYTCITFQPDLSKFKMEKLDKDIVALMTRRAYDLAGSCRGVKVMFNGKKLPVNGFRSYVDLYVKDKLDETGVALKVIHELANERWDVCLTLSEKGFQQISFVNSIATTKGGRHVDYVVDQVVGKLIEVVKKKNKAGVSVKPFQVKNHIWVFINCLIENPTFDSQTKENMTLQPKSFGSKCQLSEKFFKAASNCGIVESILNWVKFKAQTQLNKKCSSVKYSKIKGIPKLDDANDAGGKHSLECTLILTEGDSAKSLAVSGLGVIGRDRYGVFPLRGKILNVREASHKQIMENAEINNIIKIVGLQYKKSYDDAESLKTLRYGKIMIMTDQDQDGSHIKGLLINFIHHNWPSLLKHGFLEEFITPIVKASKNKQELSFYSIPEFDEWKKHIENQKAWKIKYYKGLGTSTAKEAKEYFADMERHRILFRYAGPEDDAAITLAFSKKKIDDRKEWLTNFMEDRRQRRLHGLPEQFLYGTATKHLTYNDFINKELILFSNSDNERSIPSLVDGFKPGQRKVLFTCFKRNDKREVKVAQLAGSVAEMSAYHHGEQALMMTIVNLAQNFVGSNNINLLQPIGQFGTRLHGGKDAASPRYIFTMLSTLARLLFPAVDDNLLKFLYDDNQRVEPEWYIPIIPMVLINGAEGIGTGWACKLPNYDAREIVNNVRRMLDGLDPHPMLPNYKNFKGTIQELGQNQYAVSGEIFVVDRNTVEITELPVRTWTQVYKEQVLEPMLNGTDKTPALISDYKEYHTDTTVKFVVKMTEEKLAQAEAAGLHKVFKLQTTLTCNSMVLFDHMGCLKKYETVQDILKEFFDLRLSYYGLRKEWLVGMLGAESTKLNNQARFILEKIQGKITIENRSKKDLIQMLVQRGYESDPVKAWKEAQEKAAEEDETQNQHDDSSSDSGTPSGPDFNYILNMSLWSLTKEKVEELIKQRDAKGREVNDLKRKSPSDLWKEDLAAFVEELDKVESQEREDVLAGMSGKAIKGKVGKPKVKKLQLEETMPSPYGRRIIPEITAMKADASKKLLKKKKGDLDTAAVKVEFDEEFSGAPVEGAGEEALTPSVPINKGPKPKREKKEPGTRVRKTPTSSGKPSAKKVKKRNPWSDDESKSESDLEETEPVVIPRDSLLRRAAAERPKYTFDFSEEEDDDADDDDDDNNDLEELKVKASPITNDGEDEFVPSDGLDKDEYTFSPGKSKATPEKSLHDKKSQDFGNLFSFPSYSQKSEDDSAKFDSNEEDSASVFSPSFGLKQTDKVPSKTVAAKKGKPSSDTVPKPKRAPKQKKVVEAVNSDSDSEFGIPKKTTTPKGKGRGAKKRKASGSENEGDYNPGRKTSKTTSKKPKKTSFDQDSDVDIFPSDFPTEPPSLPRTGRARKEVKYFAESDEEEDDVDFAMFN
T1 sequence (P11388 whole entry): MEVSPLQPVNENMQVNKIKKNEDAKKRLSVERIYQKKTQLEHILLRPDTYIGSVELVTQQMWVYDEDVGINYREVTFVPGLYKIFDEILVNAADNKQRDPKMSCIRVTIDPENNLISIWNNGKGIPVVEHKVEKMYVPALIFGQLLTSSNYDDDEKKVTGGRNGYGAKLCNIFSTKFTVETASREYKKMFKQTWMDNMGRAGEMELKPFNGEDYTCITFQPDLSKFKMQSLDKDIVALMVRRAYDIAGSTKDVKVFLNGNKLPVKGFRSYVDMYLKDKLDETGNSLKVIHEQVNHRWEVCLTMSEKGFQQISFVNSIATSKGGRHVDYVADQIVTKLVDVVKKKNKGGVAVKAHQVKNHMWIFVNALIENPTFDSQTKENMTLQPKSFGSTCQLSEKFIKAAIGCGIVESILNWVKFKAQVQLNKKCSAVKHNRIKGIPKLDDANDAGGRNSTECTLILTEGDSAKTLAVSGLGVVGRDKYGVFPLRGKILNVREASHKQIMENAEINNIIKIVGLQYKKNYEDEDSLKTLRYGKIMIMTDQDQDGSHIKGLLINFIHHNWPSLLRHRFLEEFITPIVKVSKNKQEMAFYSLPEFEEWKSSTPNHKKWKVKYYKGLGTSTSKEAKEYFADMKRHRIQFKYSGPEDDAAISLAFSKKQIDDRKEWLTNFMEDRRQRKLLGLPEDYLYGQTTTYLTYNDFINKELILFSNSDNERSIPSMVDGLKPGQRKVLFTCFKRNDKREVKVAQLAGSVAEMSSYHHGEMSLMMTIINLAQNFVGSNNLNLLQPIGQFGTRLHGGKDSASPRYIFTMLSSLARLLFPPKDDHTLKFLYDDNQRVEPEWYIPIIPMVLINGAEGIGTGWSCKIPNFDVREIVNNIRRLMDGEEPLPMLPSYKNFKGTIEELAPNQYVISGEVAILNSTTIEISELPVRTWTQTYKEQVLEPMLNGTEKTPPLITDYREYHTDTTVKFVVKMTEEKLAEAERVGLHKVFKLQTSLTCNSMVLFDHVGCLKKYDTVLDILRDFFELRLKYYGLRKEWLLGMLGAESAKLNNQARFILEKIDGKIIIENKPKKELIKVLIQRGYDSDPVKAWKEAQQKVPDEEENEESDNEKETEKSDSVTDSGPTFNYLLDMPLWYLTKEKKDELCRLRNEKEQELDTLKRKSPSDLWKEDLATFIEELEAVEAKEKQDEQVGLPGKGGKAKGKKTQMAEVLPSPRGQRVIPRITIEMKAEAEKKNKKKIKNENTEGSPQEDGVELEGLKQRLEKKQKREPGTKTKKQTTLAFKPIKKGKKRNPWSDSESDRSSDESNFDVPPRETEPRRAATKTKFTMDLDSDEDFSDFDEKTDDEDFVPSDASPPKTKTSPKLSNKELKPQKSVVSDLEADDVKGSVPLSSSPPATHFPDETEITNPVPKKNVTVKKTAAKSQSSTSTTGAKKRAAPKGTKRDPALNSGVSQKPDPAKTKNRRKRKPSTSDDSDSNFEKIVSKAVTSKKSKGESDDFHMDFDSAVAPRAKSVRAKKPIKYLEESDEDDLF

CCCc1cc(=O)oc2c(C(=O)N3CCCc4ccccc43)c(OCCN3CCN(C)CC3)ccc12 [topobexin (9)]
mobility of TOP2A (FRAP) (YFP-TOP2A): not affected
recovery of fluorescence for TOP2B in photobleached area (YFP-TOP2B): impaired
Plasma concentration ([1]; 10 min, individual subjects): 9.134 µM and 17.429 µM and 15.678 µM and 15.114 µM and 12.648 µM
Plasma concentration ([1]; 20 min, individual subjects): 11.689 µM and 11.373 µM and 12.322 µM and 16.573 µM and 12.398 µM
Plasma concentration ([1]; 40 min, individual subjects): 4.374 µM and 4.139 µM and 3.247 µM and 3.779 µM and 3.693 µM
Plasma concentration ([1]; 60 min, individual subjects): 1.755 µM and 3.643 µM and 3.122 µM and 2.610 µM and 3.293 µM and 2.847 µM
Plasma concentration ([1]; 120 min, individual subjects): 1.524 µM and 1.569 µM and 1.234 µM and 1.184 µM and 1.188 µM
Plasma concentration ([1]; 240 min, individual subjects): 0.456 µM and 0.440 µM and 0.629 µM and 0.503 µM and 0.425 µM
Plasma concentration ([1]; 360 min, individual subjects): 0.161 µM and 0.144 µM and 0.140 µM and 0.225 µM and 0.134 µM
Plasma concentration ([1]; 480 min, individual subjects): 0.110 µM and 0.051 µM and 0.053 µM and 0.103 µM and 0.049 µM
Plasma concentration ([1]; 600 min, individual subjects): 0.019 μM (2×) and 0.026 μM (2×) and 0.018 μM
Cmax [1, 2]: 13.5 ± 3.2 µM
Tmax [1, 2]: 10 min
concentrations present in rabbits during daunorubicin administration ([1]; plasma): ≤ 3 µM
Plasma concentration ([1]; rabbit, 10 mg/kg 20 min i.v. infusion, 5 min, individual subjects, 10 mg/kg): 7.668 µM and 14.456 µM and 10.833 µM and 11.650 µM and 11.714 µM
time with plasma concentration ≥ 1 μM ([1]; rabbit, 10 mg/kg, 20 min i.v. infusion): 2.5 h
concentration at 10 min ([1]; rabbit, plasma, intravenous, 10 mg/kg, 10 min, individual subjects): 10.8 µM
concentration at 20 min ([1]; rabbit, plasma, intravenous, 10 mg/kg, 20 min, individual subjects): 10.5 µM
concentration at 40 min ([1]; rabbit, plasma, intravenous, 10 mg/kg, 40 min, individual subjects): 3.47 µM
concentration at 120 min ([1]; rabbit, plasma, intravenous, 10 mg/kg, 120 min, individual subjects): 1320 nM
concentration at 240 min ([1]; rabbit, plasma, intravenous, 10 mg/kg, 240 min, individual subjects): 429 nM
concentration at 360 min ([1]; rabbit, plasma, intravenous, 10 mg/kg, 360 min, individual subjects): 155 nM
concentration at 600 min ([1]; rabbit, plasma, intravenous, 10 mg/kg, 600 min, individual subjects): 25 nM
concentration at 5 min ([1]; rabbit, plasma, iv, 10 mg/kg, 10 mg/kg 20 min i.v. infusion, 5 min, individual subjects): 11.1 µM

CCCc1cc(=O)oc2c(C(=O)N3CCCc4ccccc43)c(OC)cc(OC)c12 [BNS-22]
solubility in aqueous environment (Aqueous solubility): poor solubility in aqueous environment
